Measurements: US12479847B2 (DANA-FARBER CANCER INSTITUTE, INC., priority 2019, dated 2025)

How the values were obtained:
Test in all cases: KINOMEscan (ScanMAX) kinase profiling
Type in all cases: binding
[1] = target: T1, panel of 468 kinases (Homo sapiens, UniProt Q02763); conditions: TIE2; 1 μM; read-out: % control
T1 construct: purchased KINOMEscan (ScanMAX) service

[2] = target: T2, panel of 468 kinases (Homo sapiens, UniProt P23443); conditions: S6K1; 1 μM; read-out: % control
T2 construct: purchased KINOMEscan (ScanMAX) service
T2 sequence (P23443 whole entry): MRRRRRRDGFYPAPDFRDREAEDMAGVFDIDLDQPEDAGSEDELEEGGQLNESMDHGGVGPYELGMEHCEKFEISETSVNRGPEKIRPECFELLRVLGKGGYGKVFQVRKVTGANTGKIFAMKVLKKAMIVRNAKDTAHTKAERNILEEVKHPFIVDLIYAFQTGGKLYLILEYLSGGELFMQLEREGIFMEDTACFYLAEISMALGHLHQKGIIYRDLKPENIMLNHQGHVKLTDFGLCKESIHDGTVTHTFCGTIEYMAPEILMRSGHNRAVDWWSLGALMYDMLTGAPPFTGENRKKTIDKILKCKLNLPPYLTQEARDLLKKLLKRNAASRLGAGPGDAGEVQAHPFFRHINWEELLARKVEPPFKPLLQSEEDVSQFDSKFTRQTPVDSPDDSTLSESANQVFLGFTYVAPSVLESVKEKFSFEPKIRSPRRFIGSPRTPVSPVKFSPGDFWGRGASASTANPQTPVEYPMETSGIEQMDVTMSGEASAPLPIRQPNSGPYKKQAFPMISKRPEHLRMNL

[3] = target: T3, panel of 468 kinases (Homo sapiens, UniProt Q16512); conditions: PKN1; 1 μM; read-out: % control
T3 construct: purchased KINOMEscan (ScanMAX) service
T3 sequence (Q16512 whole entry): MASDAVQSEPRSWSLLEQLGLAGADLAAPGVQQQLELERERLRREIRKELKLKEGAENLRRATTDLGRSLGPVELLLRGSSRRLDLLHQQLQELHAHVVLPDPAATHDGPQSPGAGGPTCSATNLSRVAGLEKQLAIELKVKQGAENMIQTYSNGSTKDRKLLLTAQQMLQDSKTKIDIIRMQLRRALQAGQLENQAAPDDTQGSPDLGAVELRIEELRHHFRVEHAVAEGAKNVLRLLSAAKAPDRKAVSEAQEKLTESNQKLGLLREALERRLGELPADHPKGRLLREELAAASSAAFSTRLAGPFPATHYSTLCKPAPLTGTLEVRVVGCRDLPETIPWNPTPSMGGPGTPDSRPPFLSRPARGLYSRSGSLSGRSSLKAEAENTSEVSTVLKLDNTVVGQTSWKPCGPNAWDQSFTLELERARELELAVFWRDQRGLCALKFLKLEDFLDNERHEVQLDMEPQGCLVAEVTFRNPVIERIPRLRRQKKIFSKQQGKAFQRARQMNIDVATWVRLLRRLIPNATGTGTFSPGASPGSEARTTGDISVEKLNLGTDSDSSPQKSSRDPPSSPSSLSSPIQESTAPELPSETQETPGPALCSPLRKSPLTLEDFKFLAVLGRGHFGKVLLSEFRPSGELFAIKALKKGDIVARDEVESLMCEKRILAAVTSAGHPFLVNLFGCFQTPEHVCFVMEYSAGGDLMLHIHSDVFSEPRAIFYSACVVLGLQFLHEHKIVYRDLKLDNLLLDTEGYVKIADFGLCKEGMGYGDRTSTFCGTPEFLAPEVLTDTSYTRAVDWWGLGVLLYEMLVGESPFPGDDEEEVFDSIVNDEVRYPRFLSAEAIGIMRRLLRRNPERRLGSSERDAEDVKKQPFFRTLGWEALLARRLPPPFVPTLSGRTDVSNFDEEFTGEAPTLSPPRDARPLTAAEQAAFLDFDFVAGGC

[4] = target: T4, panel of 468 kinases (Homo sapiens, UniProt P68400); conditions: CSNK2A1; 1 μM; read-out: % control
T4 construct: purchased KINOMEscan (ScanMAX) service
T4 sequence (P68400 whole entry): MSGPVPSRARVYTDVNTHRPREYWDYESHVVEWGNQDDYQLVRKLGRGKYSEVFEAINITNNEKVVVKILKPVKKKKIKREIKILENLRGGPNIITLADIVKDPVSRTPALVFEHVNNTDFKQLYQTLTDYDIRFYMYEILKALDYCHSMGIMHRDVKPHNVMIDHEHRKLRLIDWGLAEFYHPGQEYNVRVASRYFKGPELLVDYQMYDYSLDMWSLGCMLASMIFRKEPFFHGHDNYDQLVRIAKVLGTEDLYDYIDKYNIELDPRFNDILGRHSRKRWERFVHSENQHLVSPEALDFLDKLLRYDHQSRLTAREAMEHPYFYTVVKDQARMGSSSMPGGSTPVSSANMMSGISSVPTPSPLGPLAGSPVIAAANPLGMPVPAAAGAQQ

[5] = target: T5, panel of 468 kinases (Homo sapiens, UniProt Q96Q40); conditions: PFTAIRE2; 1 μM; read-out: % control
T5 construct: purchased KINOMEscan (ScanMAX) service
T5 sequence (Q96Q40 whole entry): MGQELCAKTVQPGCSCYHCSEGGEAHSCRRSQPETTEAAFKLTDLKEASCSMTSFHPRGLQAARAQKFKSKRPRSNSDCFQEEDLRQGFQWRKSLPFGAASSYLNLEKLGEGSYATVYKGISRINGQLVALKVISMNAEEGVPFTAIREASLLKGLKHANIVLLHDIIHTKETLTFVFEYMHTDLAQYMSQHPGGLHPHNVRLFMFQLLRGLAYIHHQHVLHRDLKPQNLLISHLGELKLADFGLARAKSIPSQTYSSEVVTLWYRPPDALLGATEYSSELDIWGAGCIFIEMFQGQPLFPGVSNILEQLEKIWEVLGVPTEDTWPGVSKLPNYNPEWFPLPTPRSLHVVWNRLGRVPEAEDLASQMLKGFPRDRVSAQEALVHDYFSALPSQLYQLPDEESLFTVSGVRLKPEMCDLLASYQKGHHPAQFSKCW

[6] = target: T6, panel of 468 kinases (Homo sapiens, UniProt P21127); conditions: CDC2L1; 1 μM; read-out: % control
T6 construct: purchased KINOMEscan (ScanMAX) service
T6 sequence (P21127 whole entry): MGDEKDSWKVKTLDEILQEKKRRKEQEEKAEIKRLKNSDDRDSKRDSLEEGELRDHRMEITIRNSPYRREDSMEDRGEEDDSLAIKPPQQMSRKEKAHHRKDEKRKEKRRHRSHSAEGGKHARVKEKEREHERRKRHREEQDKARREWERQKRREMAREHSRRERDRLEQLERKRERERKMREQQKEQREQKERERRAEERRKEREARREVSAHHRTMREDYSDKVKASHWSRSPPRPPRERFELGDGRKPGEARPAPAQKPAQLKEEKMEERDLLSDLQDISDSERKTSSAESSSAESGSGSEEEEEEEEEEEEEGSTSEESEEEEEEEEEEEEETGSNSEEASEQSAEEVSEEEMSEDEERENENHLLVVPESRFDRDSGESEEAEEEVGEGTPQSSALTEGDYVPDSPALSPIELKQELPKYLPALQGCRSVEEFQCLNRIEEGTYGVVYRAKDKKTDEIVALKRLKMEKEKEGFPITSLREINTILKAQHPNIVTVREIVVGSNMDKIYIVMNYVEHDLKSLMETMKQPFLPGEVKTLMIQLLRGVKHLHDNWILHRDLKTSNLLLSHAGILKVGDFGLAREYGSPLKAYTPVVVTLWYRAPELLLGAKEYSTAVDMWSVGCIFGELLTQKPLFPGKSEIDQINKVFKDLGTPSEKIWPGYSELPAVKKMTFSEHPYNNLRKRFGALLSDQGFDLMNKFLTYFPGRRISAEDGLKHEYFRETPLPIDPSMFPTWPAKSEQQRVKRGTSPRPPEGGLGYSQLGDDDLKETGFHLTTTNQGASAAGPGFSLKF

[7] = target: T7, panel of 468 kinases (Homo sapiens, UniProt Q92630); conditions: DYRK2; 1 μM; read-out: % control
T7 construct: purchased KINOMEscan (ScanMAX) service
T7 sequence (Q92630 1-601): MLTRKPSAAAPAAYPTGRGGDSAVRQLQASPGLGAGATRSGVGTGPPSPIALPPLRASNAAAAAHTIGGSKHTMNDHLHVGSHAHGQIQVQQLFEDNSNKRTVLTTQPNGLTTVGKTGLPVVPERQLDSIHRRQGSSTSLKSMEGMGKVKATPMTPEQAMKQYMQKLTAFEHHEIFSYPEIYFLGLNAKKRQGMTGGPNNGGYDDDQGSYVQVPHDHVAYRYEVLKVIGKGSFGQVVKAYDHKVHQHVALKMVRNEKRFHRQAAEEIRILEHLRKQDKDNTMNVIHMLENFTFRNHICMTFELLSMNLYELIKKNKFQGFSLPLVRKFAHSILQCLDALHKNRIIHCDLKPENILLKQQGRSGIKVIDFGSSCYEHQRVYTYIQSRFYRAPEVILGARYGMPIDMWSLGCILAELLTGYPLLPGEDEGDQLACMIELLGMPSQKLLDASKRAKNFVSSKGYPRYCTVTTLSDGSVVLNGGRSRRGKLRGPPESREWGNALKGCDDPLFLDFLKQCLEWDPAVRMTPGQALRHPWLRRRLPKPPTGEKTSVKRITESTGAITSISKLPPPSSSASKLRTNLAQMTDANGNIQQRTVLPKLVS

[8] = target: T8, panel of 468 kinases (Homo sapiens, UniProt P42336, E542K); conditions: PIK3CA(E542K); 1 μM; read-out: % control
T8 construct: purchased KINOMEscan (ScanMAX) service
T8 sequence (P42336 whole entry E542K): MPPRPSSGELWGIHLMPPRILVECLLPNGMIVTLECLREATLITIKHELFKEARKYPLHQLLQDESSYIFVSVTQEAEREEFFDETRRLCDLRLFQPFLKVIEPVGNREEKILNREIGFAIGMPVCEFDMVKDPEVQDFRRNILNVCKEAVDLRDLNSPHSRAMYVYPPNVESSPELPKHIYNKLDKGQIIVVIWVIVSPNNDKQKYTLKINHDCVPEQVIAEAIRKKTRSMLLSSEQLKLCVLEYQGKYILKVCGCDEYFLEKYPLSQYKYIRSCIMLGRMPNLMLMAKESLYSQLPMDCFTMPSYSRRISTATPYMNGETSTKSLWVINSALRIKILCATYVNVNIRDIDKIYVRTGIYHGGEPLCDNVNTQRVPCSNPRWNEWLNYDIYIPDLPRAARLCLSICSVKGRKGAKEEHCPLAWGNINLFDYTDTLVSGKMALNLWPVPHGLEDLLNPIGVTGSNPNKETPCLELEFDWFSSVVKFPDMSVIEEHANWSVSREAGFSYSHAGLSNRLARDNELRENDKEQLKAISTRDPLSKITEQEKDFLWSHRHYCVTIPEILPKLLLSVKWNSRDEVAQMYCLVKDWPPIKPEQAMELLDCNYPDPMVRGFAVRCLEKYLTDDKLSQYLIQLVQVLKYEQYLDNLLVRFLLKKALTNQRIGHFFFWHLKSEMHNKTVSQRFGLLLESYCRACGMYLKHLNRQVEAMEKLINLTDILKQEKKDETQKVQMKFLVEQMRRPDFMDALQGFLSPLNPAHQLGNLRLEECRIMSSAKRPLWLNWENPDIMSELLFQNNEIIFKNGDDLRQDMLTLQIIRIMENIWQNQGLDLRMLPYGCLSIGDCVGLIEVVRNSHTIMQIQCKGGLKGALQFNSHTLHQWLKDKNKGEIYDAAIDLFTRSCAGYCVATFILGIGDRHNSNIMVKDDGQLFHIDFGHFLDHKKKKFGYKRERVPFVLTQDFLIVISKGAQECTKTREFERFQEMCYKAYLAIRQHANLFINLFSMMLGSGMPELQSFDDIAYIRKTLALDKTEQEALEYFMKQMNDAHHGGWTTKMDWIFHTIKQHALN

[9] = target: T9, panel of 468 kinases (Homo sapiens, UniProt P53355); conditions: DAPK1; 1 μM; read-out: % control
T9 construct: purchased KINOMEscan (ScanMAX) service

[10] = target: T10, panel of 468 kinases (Homo sapiens, UniProt P42679); conditions: CTK; 1 μM; read-out: % control
T10 construct: purchased KINOMEscan (ScanMAX) service
T10 sequence (P42679 1-507): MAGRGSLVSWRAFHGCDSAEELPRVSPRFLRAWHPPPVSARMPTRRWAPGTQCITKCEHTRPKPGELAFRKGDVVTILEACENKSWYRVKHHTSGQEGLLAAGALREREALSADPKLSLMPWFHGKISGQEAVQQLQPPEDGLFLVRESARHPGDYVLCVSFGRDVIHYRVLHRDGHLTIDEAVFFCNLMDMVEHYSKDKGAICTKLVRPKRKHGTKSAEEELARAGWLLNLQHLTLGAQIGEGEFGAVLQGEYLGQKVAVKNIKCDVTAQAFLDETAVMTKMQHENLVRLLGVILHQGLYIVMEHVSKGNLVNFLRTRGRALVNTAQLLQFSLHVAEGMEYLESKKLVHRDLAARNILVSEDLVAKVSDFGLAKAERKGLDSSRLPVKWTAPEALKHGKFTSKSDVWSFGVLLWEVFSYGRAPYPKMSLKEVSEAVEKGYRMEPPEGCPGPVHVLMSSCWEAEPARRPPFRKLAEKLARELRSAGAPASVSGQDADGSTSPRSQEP

[11] = target: T11, panel of 468 kinases (Homo sapiens, UniProt Q8TDX7); conditions: NEK7; 1 μM; read-out: % control
T11 construct: purchased KINOMEscan (ScanMAX) service
T11 sequence (Q8TDX7 whole entry): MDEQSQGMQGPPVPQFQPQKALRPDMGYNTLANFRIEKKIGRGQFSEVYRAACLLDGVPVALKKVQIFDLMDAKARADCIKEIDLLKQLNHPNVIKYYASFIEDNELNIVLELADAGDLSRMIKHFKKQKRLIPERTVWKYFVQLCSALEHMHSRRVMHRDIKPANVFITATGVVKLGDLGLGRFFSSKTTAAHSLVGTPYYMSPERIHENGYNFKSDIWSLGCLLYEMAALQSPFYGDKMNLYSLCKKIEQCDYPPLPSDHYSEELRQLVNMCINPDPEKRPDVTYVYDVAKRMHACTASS

[12] = target: T12, panel of 468 kinases (Homo sapiens, UniProt P42684); conditions: ABL2; 1 μM; read-out: % control
T12 construct: purchased KINOMEscan (ScanMAX) service

[13] = target: T13, panel of 468 kinases (Homo sapiens, UniProt P41743); conditions: PRKCI; 1 μM; read-out: % control
T13 construct: purchased KINOMEscan (ScanMAX) service
T13 sequence (P41743 1-596): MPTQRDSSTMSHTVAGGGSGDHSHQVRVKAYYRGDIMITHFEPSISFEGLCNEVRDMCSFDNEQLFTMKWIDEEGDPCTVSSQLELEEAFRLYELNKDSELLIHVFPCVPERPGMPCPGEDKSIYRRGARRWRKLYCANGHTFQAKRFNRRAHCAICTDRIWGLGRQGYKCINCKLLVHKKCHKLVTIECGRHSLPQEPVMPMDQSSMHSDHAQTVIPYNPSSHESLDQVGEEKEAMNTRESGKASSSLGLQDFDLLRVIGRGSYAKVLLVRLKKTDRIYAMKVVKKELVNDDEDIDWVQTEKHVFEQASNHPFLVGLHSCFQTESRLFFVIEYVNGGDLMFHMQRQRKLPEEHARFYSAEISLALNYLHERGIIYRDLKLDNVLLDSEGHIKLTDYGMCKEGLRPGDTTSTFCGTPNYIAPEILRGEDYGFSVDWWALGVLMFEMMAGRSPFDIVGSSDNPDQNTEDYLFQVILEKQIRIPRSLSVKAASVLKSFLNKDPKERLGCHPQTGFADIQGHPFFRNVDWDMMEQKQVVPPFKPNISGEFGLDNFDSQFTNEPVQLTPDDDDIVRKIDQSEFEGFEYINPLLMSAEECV

Q: `CNc1nc(Nc2ccc(C(=O)N3CCC(N4CCOCC4)CC3)c3c2OCO3)nc2[nH]cc(Cl)c12` [Compound 75, (7-((5-chloro-4-(methylamino)-7H-pyrrolo[2,3-d]pyrimidin-2-yl)amino)benzo[d][1,3]dioxol-4-yl)(4-morpholinopiperidin-1-yl)methanone] was tested. Which remaining binding at 1 µM [1] did it give?
A: 94%

Q: What about the remaining binding at 1 µM [2] of the same compound?
A: 63%

Q: And the remaining binding at 1 µM [3]?
A: 98%

Q: And the remaining binding at 1 µM [4]?
A: 24%

Q: And the remaining binding at 1 µM [5]?
A: 100%

Q: And the remaining binding at 1 µM [6]?
A: 100%

Q: What about the remaining binding at 1 µM [7] of the same compound?
A: 14%

Q: And the remaining binding at 1 µM [8]?
A: 78%

Q: And the remaining binding at 1 µM [9]?
A: 14%

Q: And the remaining binding at 1 µM [10]?
A: 100%

Q: What about the remaining binding at 1 µM [11] of the same compound?
A: 99%

Q: What about the remaining binding at 1 µM [12] of the same compound?
A: 100%

Q: What about the remaining binding at 1 µM [13] of the same compound?
A: 65%

Q: What does the source list for `CNc1nc(Nc2ccc(S(=O)(=O)N3CCC(N4CCOCC4)CC3)cc2OC)nc2[nH]cc(Cl)c12` [Compound 12, 5-chloro-N2-(2-methoxy-4-((4-morpholinopiperidin-1-yl)sulfonyl)phenyl)-N4-methyl-7H-pyrrolo[2,3-d]pyrimidine-2,4-diamine]?
A: remaining binding at 1 µM [1]: 94%; remaining binding at 1 µM [2]: 100%; remaining binding at 1 µM [3]: 100%; remaining binding at 1 µM [4]: 63%; remaining binding at 1 µM [5]: 100%; remaining binding at 1 µM [6]: 100%; remaining binding at 1 µM [7]: 13%; remaining binding at 1 µM [8]: 65%; remaining binding at 1 µM [9]: 43%; remaining binding at 1 µM [10]: 100%; remaining binding at 1 µM [11]: 100%; remaining binding at 1 µM [12]: 78%; remaining binding at 1 µM [13]: 54%

Q: `CNc1nc(Nc2ccc(P3(=O)CCN(C4CCOCC4)CC3)cc2OC)nc2[nH]cc(Cl)c12` [Compound 77, 4-(4-((5-chloro-4-(methylamino)-7H-pyrrolo[2,3-d]pyrimidin-2-yl)amino)-3-methoxyphenyl)-1-(tetrahydro-2H-pyran-4-yl)-1,4-azaphosphinane 4-oxide] was tested. Which remaining binding at 1 µM [1] did it give?
A: 100%

Q: What about the remaining binding at 1 µM [2] of the same compound?
A: 98%

Q: And the remaining binding at 1 µM [3]?
A: 99%

Q: What about the remaining binding at 1 µM [4] of the same compound?
A: 59%

Q: What about the remaining binding at 1 µM [5] of the same compound?
A: 100%

Q: What about the remaining binding at 1 µM [6] of the same compound?
A: 100%

Q: And the remaining binding at 1 µM [7]?
A: 47%

Q: And the remaining binding at 1 µM [8]?
A: 67%

Q: And the remaining binding at 1 µM [9]?
A: 8.3%

Q: And the remaining binding at 1 µM [10]?
A: 99%

Q: What about the remaining binding at 1 µM [11] of the same compound?
A: 100%

Q: And the remaining binding at 1 µM [12]?
A: 100%

Q: And the remaining binding at 1 µM [13]?
A: 55%
